Measured values: US5167824A, “Separation by carrier mediated transport” (priority 1990, dated 1992)
Where two headings read alike, the source gives them in different places.

Columns and labels:
[1] = organic solvents such as toluene; cited from earlier work
26-10 Fab = format: binding, murine
Method: (§1) After the plates were washed and blocked with 1% horse serum in PBSA, solutions ([…]) containing 26-10 Fab or the BABS in either PBSA or 0.01 M sodium acetate at pH 5.5 were added to the wells and incubated 2-3 hrs at room temperature.

[2] = system: biosynthetic protein (FB-sFv 26-10); experiment: Inhibition of 125I-dig-lysine binding by unlabelled cardiac glycosides; set-up: species or system murine; conditions: unlabelled glycoside; compared with parent 26-10 Fab
Source text: Properties of the binding site were probed by a modification of an assay developed by Mudgett-Hunter et al. (J. Immunol. (1982) 129:1165-1172; Molec. Immunol. (1985) 22:477-488), so that it could be run on microtiter plates as a solid phase sandwich assay. Binding data were collected using goat anti-murine Fab antisera (gAmFab) as the primary antibody that initially coats the wells of the plate. These are polyclonal antisera which recognize epitopes that appear to reside mostly on framework regions.
These are polyclonal antisera which recognize epitopes that appear to reside mostly on framework regions.

BABS = experiment: Radioimmunoassay, inhibition of 125I-digoxin binding to BABS by cardiac glycosides; set-up: species or system murine
Method: as §1

FB-sFv 26-10 = experiment: Oleandrin facilitated transport through supported liquid membrane containing FB-sFv 26-10; set-up: species or system murine
Source text: (§2) A hollow fiber device was constructed using 100×17.8 cm PAN fibers, produced by Sepracor, Inc., Marlborough, Mass. Each PAN fiber is a tubular membrane having a wall thickness of 50 μm and an internal diameter of 205 μm. Thus, this device contains a geometric surface area of 115 cm^2 of PAN fiber. The associated fluid handling equipment comprised two peristaltic pumps, one for the shell loop and one for the luman loop, a pressure gauge on the shell loop for determining the pressure drop from the shell side to the lumen side, and a throttling valve for creating a positive pressure on the shell side.
The fluid loops were then drained. 100 mls of buffer containing 10.0 mgs of FB-sFv 26-10 produced as disclosed above were then slowly ultrafiltered from the shell loop at a pressure of 10 psi. […] After this time, no bulk fluid, either aqueous or organic, was present in either loop. […] Since an optical density of 1.0 at 280 nm indicates a protein concentration of 1.0 mg/ml, the filtrate contained 4.0 mgs protein. 6.0 mgs of FB-sFv 26-10 were therefore assumed to be contained in the supported liquid membrane.
Octanol saturated with buffer, but not containing oleandrin, was then convected through each loop, with the 10 psi pressure differential across the supported liquid membrane. Once uninterrupted convection through each loop was established, the shell loop reservoir was replaced with a reservoir containing 500 mls of octanol saturated with buffer, and containing 2.0 mg/ml oleandrin. The lumen reservoir was replaced with a reservoir containing 50 mls of buffer saturated octanol, containing no oleandrin. Over a 24 hour period, no convective flow of octanol through the supported liquid membrane occurred.
During this period, successive 1 ml samples of the lumen reservoir were taken. In order not to disturb the volume of the lumen reservoir, the octanol taken in each sample was replaced with 1 ml of buffer saturated octanol after drawing each sample. The quantity of oleandrin contained in each lumen reservoir sample was determined by HPLC.

[3] = Partition coefficient of oleandrin; format: physicochemical; conditions: 1-octanol and water; read-out: aqueous to organic coefficient S
[4] = 1-octanol and water; cited from earlier work
[5] = Oleandrin transport through supported liquid membrane without binding protein; conditions: absence of binding protein
Source text: as §2
The device was first washed with 1 L of water. This washing involved convecting water through the lumen, through the shell, and through the PAN fibers from shell-side to lumen.
Following the washing procedure, the liquid membrane was put in place. A buffer solution of the same composition as that in which the FB-sFv protein was dissolved (50 mM sodium chloride) was pumped through the fibers, from the shell-side to the lumen. Approximately 100 mls of buffer solution were convected through the fibers. […]
Oleandrin is a cardiac glycoside having a molecular weight of 576, and an organic to aqueous partition coefficient between 1-octanol and water of 338 (Cohnen et al, Drug Res. 28 (II), Heft 12, 1978). […] The quantity of oleandrin contained in each lumen reservoir sample was determined by HPLC.

[6] = normalizing glycoside digoxigenin

Row | SMILES | solubility in organic solvents [1] | normalized concentration of inhibitor giving 50% inhibition of 125I-digoxin binding (26-10 Fab; [6]) | normalized concentration of inhibitor giving 50% inhibition of 125I-digoxin binding (26-10 Fab; normalizing glycoside digoxin) | inhibition of binding of 125I-dig-lysine [2] | normalized concentration of inhibitor giving 50% inhibition of 125I-digoxin binding (BABS; [6]) | normalized concentration of inhibitor giving 50% inhibition of 125I-digoxin binding (BABS; normalizing glycoside digoxin) | initial flux of oleandrin (FB-sFv 26-10; BABS-containing membrane) | average flux of oleandrin (FB-sFv 26-10; BABS-containing membrane, 24-hour) | first order polynomial (slope) of change in oleandrin concentration (FB-sFv 26-10; presence of binding protein, time zero) | initial increase of oleandrin flux (FB-sFv 26-10; with vs without 26-10 protein) | aqueous to organic partition coefficient [3] | organic to aqueous partition coefficient [4] | first order polynomial (slope) of change in oleandrin concentration [5]
1 | CCOC(=O)C(C)c1ccc2cc(OC)ccc2c1 (racemic) [racemic ethyl ester of naproxen, ethyl ester of naproxen] | to the extent of moles per liter | – | – | – | – | – | – | – | – | – | – | – | –
2 | CC(=O)OC1CCC2(C=O)C3CCC4(C)C(C5=CC(=O)OC5)CCC4(O)C3CCC2(O)C1 (centres unmarked) [Acetyl Strophanthidin, acetyl strophanthidin] | – | 1.1 | 1.3 | can be inhibited | 0.8 | 5.9 | – | – | – | – | – | – | –
3 | C[C@]12CC[C@H](O)C[C@H]1CC[C@@H]1[C@@H]2CC[C@]2(C)[C@@H](C3=CC(=O)OC3)CC[C@]12O [Digitoxigenin, digitoxigenin] | – | 0.9 | 1.0 | can be inhibited | 0.4 | 2.6 | – | – | – | – | – | – | –
4 | C[C@H]1O[C@@H](O[C@H]2[C@@H](O)C[C@H](O[C@H]3[C@@H](O)C[C@H](O[C@H]4CC[C@@]5(C)[C@H](CC[C@@H]6[C@@H]5CC[C@]5(C)[C@@H](C7=CC(=O)OC7)CC[C@]65O)C4)O[C@@H]3C)O[C@@H]2C)C[C@H](O)[C@@H]1O [Digitoxin, digitoxin] | – | 0.8 | 0.9 | can be inhibited | 0.3 | 2.0 | – | – | – | – | – | – | –
5 | C[C@]12CC[C@H](O)C[C@H]1CC[C@@H]1[C@@H]2C[C@@H](O)[C@]2(C)[C@@H](C3=CC(=O)OC3)CC[C@]12O [Digoxigenin, digoxigenin] | – | 1.0 | 1.2 | can be inhibited | 1.0 | 7.3 | – | – | – | – | – | – | –
6 | C[C@H]1O[C@@H](O[C@H]2[C@@H](O)C[C@H](O[C@H]3[C@@H](O)C[C@H](O[C@H]4CC[C@@]5(C)[C@H](CC[C@@H]6[C@@H]5C[C@@H](O)[C@]5(C)[C@@H](C7=CC(=O)OC7)CC[C@]65O)C4)O[C@@H]3C)O[C@@H]2C)C[C@H](O)[C@@H]1O [Digoxin, digoxin] | – | 0.9 | 1.0 | can be inhibited | 0.1 | 1.0 | – | – | – | – | – | – | –
7 | C[C@H]1O[C@@H](O[C@H]2[C@@H](O)C[C@H](O[C@H]3[C@@H](O)C[C@H](O[C@H]4CC[C@@]5(C)[C@H](CC[C@@H]6[C@@H]5CC[C@]5(C)[C@@H](C7=CC(=O)OC7)[C@@H](O)C[C@]65O)C4)O[C@@H]3C)O[C@@H]2C)C[C@H](O)[C@@H]1O [Gitoxin, gitoxin] | – | 8.1 | 9.6 | can be inhibited | 8.5 | 62 | – | – | – | – | – | – | –
8 | CO[C@H]1C[C@H](O[C@H]2CC[C@@]3(C)[C@H](CC[C@@H]4[C@@H]3CC[C@]3(C)[C@@H](C5=CC(=O)OC5)[C@@H](OC(C)=O)C[C@]43O)C2)O[C@@H](C)[C@@H]1O [Oleandrin, oleandrin] | – | – | – | can be inhibited | – | – | 4.9×10^-12 gmole/sec-cm^2 | 2.9×10^-12 gmole/sec-cm^2 | 0.0215 mg/mL/h | 9.3 fold | ~0.003 | 338 | 0.0023 mg/mL/h
9 | C[C@@H]1O[C@@H](O[C@H]2C[C@@H](O)[C@]3(CO)[C@H]4[C@H](O)C[C@]5(C)[C@@H](C6=CC(=O)OC6)CC[C@]5(O)[C@@H]4CC[C@]3(O)C2)[C@H](O)[C@H](O)[C@H]1O [Ouabain, ouabain] | – | 13 | 15 | can be inhibited | 21 | 150 | – | – | – | – | – | – | –
